The text below walks through data of publication PMC4764579, “Structural insights into the mechanism of activation of the TRPV1 channel by a membrane-bound tarantula toxin” (eLife, 2016).

Data set [1] deals with rat TRPV1, full-length channel expressed in HEK293 cells (rat) (UniProt O35433).
rat TRPV1, full-length channel expressed in HEK293 cells (rat), sequence (O35433 whole entry): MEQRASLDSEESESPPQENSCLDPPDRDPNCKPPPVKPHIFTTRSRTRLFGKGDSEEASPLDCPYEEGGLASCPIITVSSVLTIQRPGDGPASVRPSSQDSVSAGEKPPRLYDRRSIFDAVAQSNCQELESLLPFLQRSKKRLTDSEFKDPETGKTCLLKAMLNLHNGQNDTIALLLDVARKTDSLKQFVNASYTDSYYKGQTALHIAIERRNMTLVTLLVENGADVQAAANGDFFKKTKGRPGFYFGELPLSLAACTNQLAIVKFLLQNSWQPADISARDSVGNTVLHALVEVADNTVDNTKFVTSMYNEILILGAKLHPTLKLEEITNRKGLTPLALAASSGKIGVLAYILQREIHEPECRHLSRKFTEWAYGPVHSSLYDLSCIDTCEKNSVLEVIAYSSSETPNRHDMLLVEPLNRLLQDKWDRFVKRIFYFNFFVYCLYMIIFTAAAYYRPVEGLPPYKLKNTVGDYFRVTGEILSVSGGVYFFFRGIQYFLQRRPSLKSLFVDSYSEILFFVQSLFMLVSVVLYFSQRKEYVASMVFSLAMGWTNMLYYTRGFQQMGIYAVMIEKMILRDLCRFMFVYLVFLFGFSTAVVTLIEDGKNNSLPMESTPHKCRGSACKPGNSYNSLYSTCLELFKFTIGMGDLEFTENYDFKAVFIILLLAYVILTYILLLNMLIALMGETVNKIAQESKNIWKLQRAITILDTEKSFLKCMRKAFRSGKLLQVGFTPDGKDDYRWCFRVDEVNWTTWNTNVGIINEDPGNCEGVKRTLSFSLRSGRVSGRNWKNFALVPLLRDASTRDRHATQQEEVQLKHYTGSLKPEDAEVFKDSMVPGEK

double-knot toxin (DkTx), full-length toxin produced recombinantly (natural protein), sequence (P0CH43 1-75): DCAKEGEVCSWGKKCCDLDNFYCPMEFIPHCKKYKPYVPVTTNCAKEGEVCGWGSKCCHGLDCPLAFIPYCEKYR

For double-knot toxin, the Trp emission maximum in aqueous solution worked out at 353 nm.
“double-knot toxin (DkTx), full-length toxin produced recombinantly (natural protein)” returned a fractional dissociation 1 min after toxin removal (current 1 min after removal divided by steady-state current with toxin), whole-cell patch clamp at +120 mV, TRPV1 in HEK cells in data set [1] of 0.8.
